What was measured:
Test in all cases: relative viability (nuclei count vs DMSO), 5 days (fraction); higher = more cells survive
RO-3306 + Dasatinib = compound: C1=CC2=C(C=CC(=C2)C=C3C(=O)NC(=NCC4=CC=CS4)S3)N=C1 [RO-3306] + Cc1nc(Nc2ncc(C(=O)Nc3c(C)cccc3Cl)s2)cc(N2CCN(CCO)CC2)n1 [Dasatinib] (partner 0.075 µM)
Method in brief: (§1)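 Cells from lung cancer lines were seeded into 1536-well plates and, one day later, dosed by pin tool. Treatments were either a single drug or a fixed dose of an anchor drug with five library-drug doses (not always all listed) in √10 steps. After 5 days, nuclei were stained in a one-step fixation (final 0.05% Triton X-100, 1% formaldehyde, 1 ug/ml Hoechst) and counted on 4× images, and relative viability is the treated-to-vehicle nuclei ratio, as the median of duplicate plates.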

[1] = compound: O=S(=O)(c1ccccc1)N(CC(F)(F)F)c1ccc(C(O)(C(F)(F)F)C(F)(F)F)cc1 + Cc1nc(NC(=O)N2CCC[C@H]2C(N)=O)sc1-c1ccnc(C(C)(C)C(F)(F)F)c1 [Alpelisib] (partner 2 µM)
Method in brief: as §1

RO-3306 + OSI-027 = compound: C1=CC2=C(C=CC(=C2)C=C3C(=O)NC(=NCC4=CC=CS4)S3)N=C1 [RO-3306] + COc1cccc2cc(-c3nc([C@H]4CC[C@H](C(=O)O)CC4)n4ncnc(N)c34)[nH]c12 [OSI-027] (partner 0.5 µM)
Method in brief: as §1

RO-3306 + Foretinib = compound: C1=CC2=C(C=CC(=C2)C=C3C(=O)NC(=NCC4=CC=CS4)S3)N=C1 [RO-3306] + COc1cc2c(Oc3ccc(NC(=O)C4(C(=O)Nc5ccc(F)cc5)CC4)cc3F)ccnc2cc1OCCCN1CCOCC1 [Foretinib] (partner 0.25 µM)
Method in brief: as §1

Cell Line | relative viability (RO-3306 + Dasatinib; first compound 0.01 µM) | relative viability (RO-3306 + Dasatinib; first compound 0.03162 µM) | relative viability (RO-3306 + Dasatinib; first compound 0.1 µM) | relative viability (RO-3306 + Dasatinib; first compound 0.3162 µM) | relative viability (RO-3306 + Dasatinib; first compound 1 µM) | relative viability ([1]; first compound 0.8 µM) | relative viability ([1]; first compound 2.53 µM) | relative viability ([1]; first compound 8 µM) | relative viability (RO-3306 + OSI-027; first compound 0.01 µM) | relative viability (RO-3306 + OSI-027; first compound 0.03162 µM) | relative viability (RO-3306 + OSI-027; first compound 0.1 µM) | relative viability (RO-3306 + OSI-027; first compound 0.3162 µM) | relative viability (RO-3306 + OSI-027; first compound 1 µM) | relative viability (RO-3306 + Foretinib; first compound 0.01 µM) | relative viability (RO-3306 + Foretinib; first compound 0.03162 µM) | relative viability (RO-3306 + Foretinib; first compound 0.1 µM) | relative viability (RO-3306 + Foretinib; first compound 0.3162 µM) | relative viability (RO-3306 + Foretinib; first compound 1 µM)
NCI-H441 | 0.499 | 0.392 | 0.657 | 0.485 | 0.709 | 0.815 | 0.481 | 0.64 | 0.555 | 0.506 | 0.541 | 0.617 | 0.534 | 0.911 | 0.937 | 0.944 | 1.07 | 0.937
NCI-H460 | 0.543 | 0.435 | 0.448 | 0.518 | 0.385 | 0.544 | 0.512 | 0.512 | 0.613 | 0.492 | 0.654 | 0.835 | 0.605 | 1 | 0.894 | 1.08 | 1.08 | 1.08
NCI-H520 | 0.168 | 0.195 | 0.178 | 0.195 | 0.162 | 1 | 0.915 | 1.28 | 0.288 | 0.283 | 0.225 | 0.254 | 0.304 | 0.843 | 0.663 | 0.854 | 0.694 | 0.839
NCI-H596 | 0.557 | 0.554 | 0.657 | 0.665 | 0.552 | 0.423 | 0.419 | 0.421 | 0.788 | 0.72 | 0.7 | 0.729 | 0.579 | 0.716 | 0.797 | 0.818 | 0.872 | 0.77
NCI-H647 | 0.155 | 0.117 | 0.18 | 0.226 | 0.129 | 1.25 | 1.01 | 1.35 | 0.644 | 0.608 | 0.636 | 0.84 | 0.673 | 1.29 | 1.12 | 1.12 | 1.27 | 1.24
NCI-H650 | 0.429 | 0.421 | 0.393 | 0.479 | 0.421 | 1.13 | 1.03 | 1 | 0.473 | 0.471 | 0.492 | 0.483 | 0.501 | 0.989 | 0.94 | 1.01 | 1.07 | 1.02
NCI-H661 | 0.834 | 0.769 | 0.828 | 0.814 | 0.799 | 0.752 | 0.681 | 1.02 | 0.853 | 0.597 | 0.695 | 0.72 | 0.701 | 1.01 | 1.07 | 0.981 | 0.985 | 0.999
NCI-H727 | 0.346 |  | 0.413 | 0.402 | 0.523 | 0.549 | 0.465 | 0.489 | 0.567 | 0.548 | 0.557 | 0.608 | 0.674 | 1.03 | 0.94 | 0.74 | 1.21 | 1.01
NCI-H838 | 0.351 | 0.254 | 0.244 | 0.295 | 0.273 | 1.12 | 0.923 | 1.07 | 0.334 | 0.394 | 0.35 | 0.412 | 0.373 | 1.13 | 0.966 | 1.06 | 1.16 | 1.06
NCI-H1355 | 0.673 |  | 0.683 | 0.703 | 0.504 | 0.861 | 0.727 | 0.715 | 0.379 |  | 0.378 | 0.375 | 0.337 | 1.04 |  | 1.05 | 1.02 | 0.942
NCI-H1395 | 0.4 | 0.494 | 0.372 | 0.409 | 0.587 | 0.936 | 1.02 | 1.29 | 0.598 | 0.674 | 0.502 | 0.618 | 0.612 | 0.981 | 0.902 | 0.895 | 0.945 | 0.824
NCI-H1437 | 0.428 | 0.288 | 0.283 | 0.405 | 0.461 | 0.904 | 0.771 | 0.718 | 0.936 | 0.814 | 0.825 | 0.912 | 0.878 | 1.38 | 1.21 | 1.28 | 1.28 | 1.25
NCI-H1563 | 0.413 | 0.526 | 0.415 | 0.48 | 0.451 | 0.923 | 0.833 | 0.788 | 0.671 | 0.733 | 0.736 | 0.735 | 0.725 | 0.847 | 1.03 | 0.881 | 0.956 | 0.939
NCI-H1651 | 0.383 | 0.329 | 0.382 | 0.418 | 0.354 | 0.94 | 0.972 | 0.89 | 0.796 | 0.564 | 0.633 | 0.794 | 0.609 | 0.986 | 0.723 | 0.879 | 0.8 | 0.823
NCI-H1666 | 0.794 | 0.724 | 0.772 | 0.795 | 0.698 | 0.776 | 0.868 | 0.892 | 0.747 | 0.73 | 0.749 | 0.817 | 0.853 | 0.936 | 0.891 | 0.905 | 1.04 | 0.935
NCI-H1734 | 0.442 | 0.476 | 0.444 | 0.473 | 0.443 | 0.845 | 0.626 | 0.708 | 0.653 | 0.582 | 0.529 | 0.615 | 0.514 | 0.759 | 0.746 | 0.893 | 0.924 | 0.804
